Assays:
[1] = system: guinea pigs; assay: Duration of bronchoprotection in guinea pig model of acetylcholine-induced bronchoconstriction; format: in vivo; details: 1.5 hours post-dose, inhalation
Description: Groups of six male guinea pigs (Duncan-Hartley (HsdPoc:DH) Harlan, Madison, Wis.) weighing between 250 and 350 g are individually identified by cage cards. Throughout the study animals are allowed access to food and water ad libitum.
Test compounds are administered via inhalation over 10 minutes in a whole-body exposure dosing chamber (R&S Molds, San Carlos, Calif.). The dosing chambers are arranged so that an aerosol was simultaneously delivered to 6 individual chambers from a central manifold. Guinea pigs are exposed to an aerosol of a test compound or vehicle (WFI). […] This is measured gravimetrically by comparing pre-and post-nebulization weights of the filled nebulizer.
The bronchoprotective effects of test compounds administered via inhalation are evaluated using whole body plethysmography at 1.5, 24, 48 and 72 hours post-dose.
Forty-five minutes prior to the start of the pulmonary evaluation, each guinea pig is anesthetized with an intramuscular injection of ketamine (43.75 mg/kg), xylazine (3.50 mg/kg) and acepromazine (1.05 mg/kg). […] The depth of anesthesia is monitored and adjusted if the animal responds to pinching of its paw or if the respiration rate is greater than 100 breaths/minute. […]
Starting this program initiates the experimental protocol and data collection. […] By integrating this signal over time, a measurement of […] is calculated for each breath. […]

[2] = target: T1, hM3 receptor (Homo sapiens, UniProt P20309); assay: Blockade of agonist-mediated calcium release via FLIPR; format: cell-based; details: CHO cells stably expressing the hM3 receptor; this or a similar assay
T1 construct: expressed in transfected cells
Source text: Muscarinic receptor subtypes (M1, M3 and M5 receptors), which couple to Gq proteins, activate the phospholipase C (PLC) pathway upon agonist binding to the receptor. As a result, activated PLC hydrolyzes phosphatyl inositol diphosphate (PIP2) to diacylglycerol (DAG) and […] (IP3), which in turn generates calcium release from intracellular stores, i.e., endoplasmic and sarcoplasmic reticulum. The FLIPR (Molecular Devices, Sunnyvale, Calif.) assay capitalizes on this increase in intracellular calcium by using a calcium sensitive dye (Fluo-4AM, Molecular Probes, Eugene, Oreg.) that fluoresces when free calcium binds. This fluorescence event is measured in real time by the FLIPR, which detects the change in fluorescence from a monolayer of cells cloned with human M1 and M3, and chimpanzee M5 receptors. Antagonist potency can be determined by the ability of antagonists to inhibit agonist-mediated increases in intracellular calcium. […]
To determine antagonist potency, the dose-dependent stimulation of intracellular Ca^2+ release for oxotremorine is first determined so that antagonist potency can later be measured against oxotremorine stimulation at an EC90 concentration. […]
The change of fluorescence is expressed as maximum fluorescence minus baseline fluorescence for each well. […]

T1 sequence (P20309 whole entry): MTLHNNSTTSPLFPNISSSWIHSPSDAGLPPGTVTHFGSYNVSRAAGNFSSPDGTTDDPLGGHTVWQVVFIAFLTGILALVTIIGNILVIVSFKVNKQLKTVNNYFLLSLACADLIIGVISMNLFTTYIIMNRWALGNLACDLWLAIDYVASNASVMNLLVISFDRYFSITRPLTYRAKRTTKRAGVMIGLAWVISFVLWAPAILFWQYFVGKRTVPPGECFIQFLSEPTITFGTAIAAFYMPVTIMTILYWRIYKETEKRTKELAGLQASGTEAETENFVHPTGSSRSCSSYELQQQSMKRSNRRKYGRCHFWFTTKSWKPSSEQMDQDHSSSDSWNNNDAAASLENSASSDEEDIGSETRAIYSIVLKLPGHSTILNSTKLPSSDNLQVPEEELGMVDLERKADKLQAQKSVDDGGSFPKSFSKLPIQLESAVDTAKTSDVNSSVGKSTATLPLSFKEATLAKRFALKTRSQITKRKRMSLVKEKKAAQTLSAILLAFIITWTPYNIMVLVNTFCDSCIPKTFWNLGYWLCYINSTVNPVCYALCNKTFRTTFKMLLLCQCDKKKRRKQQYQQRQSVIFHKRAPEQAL

CN(CCN1CCC(OC(=O)Nc2ccccc2-c2ccccc2)CC1)C(=O)c1ccc(CN2CCC(C(N)=O)CC2)cc1 [compound of formula I, biphenyl-2-ylcarbamic acid 1-(2-{[4-(4-carbamoylpiperidin-1-ylmethyl)benzoyl]methylamino}ethyl)piperidin-4-yl ester]
PD2(50) for ACh-induced bronchoconstriction [1]: less than 200 μg/mL
Ki [2]: < 5 nM
